Entries after “also recorded” stand apart in the source; their conditions may differ. Where two headings read alike, the source gives them in different places. Where a SMILES comes first, the peptide text is derived from it. Bridges are numbered along the chain shown (N, C = ends). Where no end group is shown, it is not given here.

Data set [1] can be described thus: solubility in assay/binding buffer. Type of data set: physicochemical. As to conditions: assay buffer of the IgE binding inhibition assay.
The target of data set [2] is T1, alpha subunit of the human FcεRI receptor (Homo sapiens, UniProt P12319).
T1 construct: expressed in transfected cells; host or cells: Chinese hamster ovary (CHO FcεRI+) cells
T1 sequence (P12319 26-257): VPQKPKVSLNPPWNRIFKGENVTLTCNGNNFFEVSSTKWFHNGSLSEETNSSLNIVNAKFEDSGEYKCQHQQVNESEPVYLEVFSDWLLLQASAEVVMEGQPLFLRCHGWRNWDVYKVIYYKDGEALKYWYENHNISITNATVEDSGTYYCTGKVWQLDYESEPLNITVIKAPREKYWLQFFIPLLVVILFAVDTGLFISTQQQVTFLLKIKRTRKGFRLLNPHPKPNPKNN
Briefly: cell-based 125I-IgE binding inhibition assay on CHO FcεRI+ cells. The method in brief:
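Peptides, serially diluted 1:3 from 50-500 uM, preincubated 1 h at room temperature on CHO cells expressing human FcεRI alpha, then 1.5 nM 125I-IgE added for 45-60 min at 4 °C. Buffer F12/DMEM, 1% BSA, 0.05% NaN3, pH 7.2. Bound counts by gamma counting; IC50 from 4-parameter fits.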

The nature of data set [3]: 2D NMR structural score versus reference peptide. In kind it is physicochemical. Also noted: key to Structure Score: +++, peptide structurally similar to reference; +, structurally similar to reference but significantly less stable; +/−, peptide has some elements of stable structure, but the conformation differs from the reference structure; −, peptide is predominantly unstructured; *peptide IGE037 (SEQ ID NO:128) was initially unstructured (monomeric form), but became structured after spontaneous dimer formation. As to conditions: reference IGE134. The gist of the method: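 Backbone ¹H resonances assigned by 2D NMR and ³JHN-Hα coupling constants measured against a reference peptide. Structure scored similar when chemical shifts, coupling constants and NOEs are consistent with the reference structure.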

Data set [4] can be described thus: disulfide reshuffling of monomer peptide to homodimer in solution. In kind it is physicochemical. As to conditions: in water or buffer at neutral pH. An excerpt: This change occurs slowly, over a 3-12 day period following the solubilization of the peptide in water or buffer at neutral pH. […] Additional support for the occurrence of a change came from NMR data detecting a change in the one-dimensional NMR spectrum. Also HPLC reverse phase data indicated a change in retention time that correlated with the activity and the conversion of a monomer to a dimer. Final confirmation of the formation of an active dimer followed the syntheses of both parallel (IGE088, SEQ ID NO:128, 128) and anti-parallel (IGE089, SEQ ID NOS:128, 157) […] disulfide-linked dimer peptides. Both peptide forms were assayed for activity in inhibiting I^125-IgE binding to cell surface expressed FcεRI.

Data set [5] deals with T2, FcεRI (Homo sapiens, UniProt P12319).
T2 construct: human FcεRI(aa 1-176) was expressed using a baculovirus secretion expression system; host or cells: Hi-5 insect cells infected with baculovirus (virus produced in Sf9; transfer vector pAcGP67)
T2 sequence (P12319 26-201): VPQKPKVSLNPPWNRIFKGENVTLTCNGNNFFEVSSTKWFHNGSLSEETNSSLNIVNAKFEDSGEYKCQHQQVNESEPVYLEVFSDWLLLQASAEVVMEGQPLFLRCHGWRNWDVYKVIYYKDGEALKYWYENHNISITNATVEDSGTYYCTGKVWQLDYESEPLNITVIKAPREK
Description: competitive phage ELISA on baculovirus-derived FcεRI. As to conditions: compared with the parent. Type of data set: binding. The source says: The extracellular domain of the alpha subunit of the human FcεRI(aa 1-176) was expressed using a baculovirus secretion expression system (Pharminten). cDNA encoding this domain was obtained through PCR of a plasmid containing a full length clone. The DNA fragment was ligated into baculovirus tranfer vector pAcGP67 and along with BaculoGold linearized baculovirus DNA was transfected into Sf9 cells Spodoptera frugiperda insect cells for baculovirus production (Pharmingen). Soluble FcεRI was affinity purified from the growth media of baculovirus infected Hi-5 insect cells (Expression Systems).
Phage ELISA assays were carried out as described (Lowman, 1998, supra), using Nunc Maxisorp™ plates coated with a 2 μg/mL solution of baculovirus-derived FcεRI. Peptide-phage were pre-incubated for 5-10 min with serial dilutions of receptor, then added to the receptor-coated plate. After incubation for 1 h at room temperature, the plates were washed and an anti-phage HRP-conjugated antibody (Pharmacia) was added. After further incubation for 20 min, plates were again washed and developed using the substrate OPD (Sigma). Optical density at 492 nm was read and plotted as a function of FcεRI concentration to determine an IC50 of inhibition by each peptide-phage variant.
A phage-based alanine scanning approach was used to map the FcεRI binding determinants of IGE134 (SEQ ID NOS:155, 171), as described above for IGE120 (SEQ ID NO:131, 159). […] Additionally, combinations of Ala mutations, deletions, and other substitutions were tested.

Data set [6] has as its target T3, FcεRIα (Homo sapiens, UniProt P12319).
T3 construct: human FcεRI(aa 1-176) was expressed using a baculovirus secretion expression system; host or cells: Hi-5 insect cells infected with baculovirus (virus produced in Sf9; transfer vector pAcGP67)
T3 sequence (P12319 26-201): T2 sequence (P12319 26-201)
Briefly: surface plasmon resonance biosensor direct-binding assay. The method, then: Several peptides were also tested in a direct-binding assay using a surface plasmon resonance biosensor (Lofas & Johnsson, J. Chem. Soc. Commun. 21, 1526-1528 (1990)). FcεRIα, produced in baculovirus infected insect cells, was immobilized by the surface thiol method (BIAcore Methods Manual Supplement 5a, BIAcore, Inc., Piscataway, N.J.). Briefly, receptor was reacted with 2-(2pyridinyldithio)ethaneamine hydrochloride (PDEA; Natake & Swaisgood, J. Biochem. 74, 77-86 (1973)), desalted into 10 mM sodium acetate (pH 4.8) and stored in aliquots at −80″C. Thawed PDEA-receptor was injected over carboxymethyl-dextran (B1 or CM5, BIAcore, Inc.) biosensor chips preactivated with N-ethyl-N′-(3-dimethylaminopropyl)-carbodiimide hydrochloride (EDC) and N-hydroxysuccinimide (NHS), cystamine, and DTT. Following coupling, reactive groups on the chip were quenched with […] and ethanolarine. Serial dilutions of peptide in running buffer (phosphate-buffered saline containing 0.05% Tween-20, 0.01% sodium azide) were injected over the immobilized receptor, and the net amount of peptide bound at steady-state was measured as the net change in response (RU) at a point just prior to termination of peptide injection, compared to a running-buffer baseline. Binding affinities (Table 10) are reported as the midpoint (EC50) of a 4-parameter fit to the peptide saturation curve.

The target of data set [7] is T4, RBL-48 cells (Homo sapiens, UniProt P12319).
T4 sequence (P12319 26-257): T1 sequence (P12319 26-257)
Briefly: histamine release assay: induction of histamine release by peptide. As to conditions: peptide 0.5 mM on RBL-48 cells.
Description: Peptides were assayed in a histamine release assay (Lowe et al., (1995) J. Immunol. Methods, 184:113-122) to determine: (1) if the peptides could trigger histamine release and (2) if the peptides could prevent histamine release in the presence of ragweed and ragweed specific IgE. Rat basophil cell line RBL-48, which expresses the human FcεRI alpha subunit was cultured overnight in Falcon 96 flat well microtiter dishes. The cells were washed three times with growth media and then incubated in Iscove's MEM medium containing 10% fetal bovine serum and 3 USP units per milliliter of heparin (histamine assay buffer).

For `CSCC[C@H](NC(=O)[C@@H]1CSSC[C@H](NC(=O)[C@@H](NC(=O)[C@H](C)NC(=O)[C@H](CCC(=O)O)NC(=O)[C@H](C)N)[C@@H](C)O)C(=O)N[C@@H]([C@@H](C)O)C(=O)N[C@@H](CCC(=O)O)C(=O)NCC(=O)N2CCC[C@H]2C(=O)N[C@@H](Cc2c[nH]c3ccccc23)C(=O)NCC(=O)N[C@@H](Cc2c[nH]c3ccccc23)C(=O)N[C@@H](C(C)C)C(=O)N1)C(=O)N[C@@H](C)C(=O)N[C@@H](C)C(=O)N[C@@H](CC(=O)O)C(=O)O` [AEATCTEGPWGWVCMAAD] (H-AEATCTEGPWGWVCMAAD-OH; disulfide 5-14), in data set [1], the “solubility in the assay/binding buffer” value is on record as “not soluble; also recorded: insoluble”.

In general, IC50 refers to the concentration at which inhibition is half-maximal. Turning to `CC(C)C[C@H](NC(=O)[C@H](C)N)C(=O)N[C@H]1CSSC[C@@H](C(=O)N[C@@H](Cc2ccc(O)cc2)C(=O)N[C@H](C(N)=O)C(C)C)NC(=O)[C@H](C(C)C)NC(=O)[C@H](C)NC(=O)[C@@H]2CCCN2C1=O` [IGE037, ALCPAVCYV-nh2] (H-ALCPAVCYV-NH2; disulfide 3-7; N-terminus assumed), the IC50 in data set [2] (IGE037: initially, read-out: IC50) is around 300000 nM. The “Structure Score” value in data set [3] is listed as “+++*”. Further, in data set [4], the “period of conversion of monomer to disulfide linked homodimer” value lay within 3 to 12 days.

By Kd is commonly meant the concentration at which binding is half-saturated. Consider `CC(C)C[C@@H]1NC(=O)[C@H](CCC(=O)O)NC(=O)[C@H](Cc2ccc(O)cc2)NC(=O)[C@@H]2CSSC[C@H](NC(=O)[C@H](CC(C)C)NC(=O)[C@H](CCC(=O)O)NC(=O)[C@H](Cc3ccc(O)cc3)NC(=O)[C@H](CC(=O)O)NC1=O)C(=O)N1CCC[C@H]1C(=O)N[C@@H](CC(=O)O)C(=O)N[C@@H](C(C)C)C(=O)N[C@H](C(=O)N[C@@H](Cc1ccc(O)cc1)C(=O)N[C@H](C(N)=O)C(C)C)CSSC[C@H](NC(=O)[C@H](CCC(N)=O)NC(=O)[C@@H](N)C(C)C)C(=O)N1CCC[C@H]1C(=O)N[C@@H](Cc1c[nH]cn1)C(=O)N[C@@H](Cc1ccccc1)C(=O)N2` [IGE134] (H-VQCPHFCYELDYELCPDVCYV-NH2; disulfide 3-19, 7-15; N-terminus assumed), for which the “relative binding affinity (in words)” value in data set [5] was “improved affinity over IGE122”. In data set [2] (average IC50, inhibition assay (Table 9)), this compound gave an IC50 of 32 nM. The affinity in data set [6], expressed as Kd, was 32 nM. For the same compound, the “Structure Score” value in data set [3] is given as “+++”.

Take “PRCTEGPWGWVCM (disulfide 3-12 (inferred); not fully specified (C-terminus))”: the “levels of histamine released” value in data set [7] was “equivalent to that of the negative control”.

For the origin of these results see US20040086942A1, “Ige receptor antagonists” (priority 2003, published 2004).
